Measurements published in PubChem BioAssay AID1918942 (Molecular Pharmacology Branch, DTP, NCI, 2023).
Values joined by “and” are separate entries in the source; they are usually repeats but may differ in a detail not shown here. Identical values can stand only once.

Test system: 743489-274-T-PDC complex spheroid viability
Experiment: Anticancer human tumor 743489-274-T-PDC patient-derived renal cell carcinoma cell line growth inhibition
Conditions: for viability, T/C: stronger effect = lower value
From the text: Multicellular complex tumor spheroid response to LSD1 Inhibitor Iadademstat in combination with a variety of drugs and investigational agents in selected tumor cell lines
The current study was undertaken to assess response to LSD1 inhibitors in combination with standard-of-care drugs and investigational agents in solid tumor complex spheroid models as well as in the K-562 leukemia. Complex spheroids include a stromal component modeled by human endothelial cells (HUVEC) and fibroblasts modeled by human mesenchymal stem cells (MSCs). The concentration ranges selected for each drug and investigational agent were based upon clinically achievable concentrations if the clinical Cmax of the agent was known.
Compounds. The drugs and investigational agents used in this study are listed on Table 1. All of the agents used, including staurosporine (NSC755774) and gemcitabine (NSC613327), were obtained from the Developmental Therapeutics Program, NCI. FDA-approved anticancer drugs are available from the NCI at http://dtp.nci.nih.gov/branches/dscb/oncology_drugset_explanation.html. Drugs and investigational agents were >95% pure by proton nuclear magnetic resonance (NMR) and liquid chromatography/mass spectrometry (LC/MS). Stock solutions were prepared at 400x in DMSO, stored at -70 degrees C, and diluted in fresh medium prior to their use. The final concentration of DMSO in cell culture wells never exceeded 0.25% (v/v). The FDA-approved anticancer drug set is available from the Developmental Therapeutics Program at https://dtp.cancer.gov/organization/dscb/obtaining/available_plates.htm. All drugs and investigational agents were tested over a range starting from a high concentration at or near the clinical Cmax and decreasing in half-log increments. If the clinical Cmax for an agent had not been determined, the highest concentration tested was 10 microM.
Cell Lines. The patient-derived cancer cell (PDC) lines: 292921-168-R-J2-PDC, K24384-001-R-PDC, and 521955-158-R2-J5-PDC pancreatic carcinomas, 556581-035-R-J1 ovarian carcinoma, 324938-238-R-J1-PDC, 855422-203-R-J1-PDC and 883617-216-R-J1-PDC urothelial bladder carcinomas, 743489-274-T-PDC renal cell carcinoma, 138582-R-J1 Merkel cell tumor, K60290-347-R-J1 and K57222-313-R-J1-PDC glioblastomas, 653999-131-R-J2-PDC, LG0703-F948-PDC, and 349418-098-R-PDC non-small cell lung carcinomas, 885512-296-R-J2-PDC, 171881-019-R-J1-PDC breast carcinomas and 186277-243-T-J2-PDC and 233499-124-R-J2-PDC colon carcinomas were obtained from the NCI Patient-Derived Models Repository (PDMR, https://pdmr.cancer.gov). The established cell lines NCI/ADR-RES (RRID:CVCL_14520 and OVCAR-5 (RRID:CVCL_1628) ovarian carcinomas, 786-O (RRID:CVCL_1051) and A498 (RRID:CVCL_A498) renal cell carcinoma, NCI-H211 (ATCC, cat. CRL-5824; RRID:CVCL_1529), NCI-H196 (ATCC, cat. CRL-5823, RRID:CVCL_1509), SW 1271 (ATCC, cat. CRL-2177, RRID:CVCL_1716) and NCI-H1876 (ATCC, cat. CRL-5902, RRID:CVCL_1503) small cell lung carcinomas, MDA-MB-231 (RRID:CVCL_0062) and MDA-MB-468 (RRID:CVCL_0419)breast carcinomas (10-12). Pooled donor human umbilical vein endothelial cells (HUVEC, Lonza, cat. CC-2519) and human mesenchymal stem cells (hMSC, Lonza, cat. PT-2501) were purchased from Lonza (Walkersville, MD).
Cell Culture. All cells were maintained in an incubator at 37 degrees C and 5% CO2 with 95% humidity. The PDC lines were cultured according to standard operating procedures established by the NCI PDMR (https://pdmr.cancer.gov). Briefly all PDCs were thawed and cultured in Matrigel-coated flasks prepared with a working solution of 1X Ham's F-12 nutrient mix, without supplementation (Invitrogen, Waltham, MA, cat. 11765054), 100 U/mL penicillin-streptomycin (Invitrogen, cat. 15140122), and 2.5% Matrigel (Corning Inc., Corning, NY, cat. 354248) for the first three passages. […]

[1] = curve of first compound, second compound 0.1 µM
[2] = curve of first compound, second compound 0.316 µM
[3] = curve of first compound, second compound 1 µM
[4] = curve of first compound, second compound 3.16 µM
[5] = curve of first compound, second compound 10 µM
[6] = second compound 0.1 µM, first compound 0.00949 µM
[7] = second compound 0.1 µM, first compound 0.03 µM
[8] = second compound 0.1 µM, first compound 0.0949 µM
[9] = second compound 0.1 µM, first compound 0.3 µM
[10] = second compound 0.1 µM, first compound 0.949 µM
[11] = second compound 0.1 µM, first compound 3 µM
[12] = second compound 0.316 µM, first compound 0.00949 µM
[13] = second compound 0.316 µM, first compound 0.03 µM
[14] = second compound 0.316 µM, first compound 0.0949 µM
[15] = second compound 0.316 µM, first compound 0.3 µM
[16] = second compound 0.316 µM, first compound 0.949 µM
[17] = second compound 0.316 µM, first compound 3 µM
[18] = second compound 1 µM, first compound 0.00949 µM
[19] = second compound 1 µM, first compound 0.03 µM
[20] = second compound 1 µM, first compound 0.0949 µM
[21] = second compound 1 µM, first compound 0.3 µM
[22] = second compound 1 µM, first compound 0.949 µM
[23] = second compound 1 µM, first compound 3 µM
[24] = second compound 3.16 µM, first compound 0.00949 µM
[25] = second compound 3.16 µM, first compound 0.03 µM
[26] = second compound 3.16 µM, first compound 0.0949 µM
[27] = second compound 3.16 µM, first compound 0.3 µM
[28] = second compound 3.16 µM, first compound 0.949 µM
[29] = second compound 3.16 µM, first compound 3 µM
[30] = second compound 10 µM, first compound 0.00949 µM
[31] = second compound 10 µM, first compound 0.03 µM
[32] = second compound 10 µM, first compound 0.0949 µM
[33] = second compound 10 µM, first compound 0.3 µM
[34] = second compound 10 µM, first compound 0.949 µM
[35] = second compound 10 µM, first compound 3 µM
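Further: spheroids exposed to compounds for 7 days before readout.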
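Wherever viability, T/C is given: 100% = DMSO vehicle control wells.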

`CCN(c1cc(-c2ccc(CN3CCOCC3)cc2)cc(C(=O)NCc2c(C)cc(C)[nH]c2=O)c1C)C1CCOCC1` + NC1CC1c1ccc(-c2cccc(O)c2)cc1 was tested, and the IC50 [1] was > 3 µM, the IC50 [2] was > 3 µM and the IC50 [3] was > 3 µM. For the same compound, the IC50 [4] was > 3 µM, the IC50 [5] was > 3 µM and the viability, T/C [6] was 104%. It also gave a viability, T/C [7] of 110%, a viability, T/C [8] of 95.6% and a viability, T/C [9] of 94.2%. It also gave a viability, T/C [10] of 96.1%, a viability, T/C [11] of 102% and a viability, T/C [12] of 111%. For the same compound, the viability, T/C [13] was 98.3%, the viability, T/C [14] was 102% and the viability, T/C [15] was 96.3%. It also gave a viability, T/C [16] of 97.2%, a viability, T/C [17] of 111% and a viability, T/C [18] of 104%. It also gave a viability, T/C [19] of 107%, a viability, T/C [20] of 103% and a viability, T/C [21] of 102%. The viability, T/C [22] was 97.2%, the viability, T/C [23] was 104% and the viability, T/C [24] was 96.6%. The viability, T/C [25] was 104%, the viability, T/C [26] was 92.8% and the viability, T/C [27] was 99.7%. It also gave a viability, T/C [28] of 108%, a viability, T/C [29] of 102% and a viability, T/C [30] of 101%. The viability, T/C [31] was 100%, the viability, T/C [32] was 106% and the viability, T/C [33] was 101%. For the same compound, the viability, T/C [34] was 106% and the viability, T/C [35] was 104%.
With `NC1CCC(NC2CC2c2ccccc2)CC1` (stereo unspecified) the viability, T/C (compound 0.316 µM) was 105% and 107% and the IC50 (compound alone, run of 11/29/2021) was > 10 µM.
For `COc1cc(C2c3cc4c(cc3C(OC3OC5COC(C)OC5C(O)C3O)C3COC(=O)C23)OCO4)cc(OC)c1O` (stereo unspecified) + NC1CCC(NC2CC2c2ccccc2)CC1, the IC50 [1] was > 3 µM, the IC50 [2] was > 3 µM and the IC50 [3] was > 3 µM. The IC50 [4] was > 3 µM, the IC50 [5] was > 3 µM and the viability, T/C [6] was 108%. It also gave a viability, T/C [7] of 119%, a viability, T/C [8] of 112% and a viability, T/C [9] of 96.6%. The viability, T/C [10] was 106%, the viability, T/C [11] was 85.7% and the viability, T/C [12] was 105%. It also gave a viability, T/C [13] of 105%, a viability, T/C [14] of 97.8% and a viability, T/C [15] of 94.8%. The viability, T/C [16] was 91.7%, the viability, T/C [17] was 95.3% and the viability, T/C [18] was 118%. For the same compound, the viability, T/C [19] was 121%, the viability, T/C [20] was 117% and the viability, T/C [21] was 110%. For the same compound, the viability, T/C [22] was 93.2%, the viability, T/C [23] was 97.9% and the viability, T/C [24] was 125%. The viability, T/C [25] was 113%, the viability, T/C [26] was 115% and the viability, T/C [27] was 110%. The viability, T/C [28] was 99%, the viability, T/C [29] was 87.9% and the viability, T/C [30] was 117%. The viability, T/C [31] was 115%, the viability, T/C [32] was 112% and the viability, T/C [33] was 111%. The viability, T/C [34] was 98.6% and the viability, T/C [35] was 111%.
With `NC1CC1c1ccc(-c2cccc(O)c2)cc1` (stereo unspecified) the viability, T/C (compound 0.316 µM) was 103% [middle of 25 runs] and the IC50 (compound alone, run of 12/07/2021) was > 10 µM.
For `CC1COCCN1c1cc(-c2ccnn2C)c2ccnc(-c3ccn[nH]3)c2n1` (stereo unspecified), the viability, T/C (compound 0.00316 µM) was 102% and 81.5%, the viability, T/C (compound 0.01 µM) was 107% and the viability, T/C (compound 0.0316 µM) was 78.8% and 87.5%. The viability, T/C (compound 0.1 µM) was 70.9% and 71.9%, the viability, T/C (compound 0.316 µM) was 71.5% and 56.4% and the viability, T/C (compound 1 µM) was 64.2% and 53.2%. For the same compound, the IC50 (curve of compound) was > 1 µM.
In the case of `CC1COCCN1c1cc(C2(S(C)(=N)=O)CC2)nc(-c2ccnc3[nH]ccc23)n1` (stereo unspecified) + NC1CC1c1ccc(-c2cccc(O)c2)cc1, the IC50 [1] is reported as > 10 µM, the IC50 [2] is reported as > 10 µM and the IC50 [3] is reported as > 10 µM. The IC50 [4] was > 10 µM, the IC50 [5] was > 10 µM and the viability, T/C (second compound 0.1 µM, first compound 0.0316 µM) was 94.6%. It also gave a viability, T/C (second compound 0.1 µM, first compound 0.1 µM) of 103%, a viability, T/C (second compound 0.1 µM, first compound 0.316 µM) of 92.3% and a viability, T/C (second compound 0.1 µM, first compound 1 µM) of 94.6%. It also gave a viability, T/C (second compound 0.1 µM, first compound 3.16 µM) of 74.4%, a viability, T/C (second compound 0.1 µM, first compound 10 µM) of 68.3% and a viability, T/C (second compound 0.316 µM, first compound 0.0316 µM) of 99.5%. It also gave a viability, T/C (second compound 0.316 µM, first compound 0.1 µM) of 96.6%, a viability, T/C (second compound 0.316 µM, first compound 0.316 µM) of 99.6% and a viability, T/C (second compound 0.316 µM, first compound 1 µM) of 101%. The viability, T/C (second compound 0.316 µM, first compound 3.16 µM) was 90.1%, the viability, T/C (second compound 0.316 µM, first compound 10 µM) was 73.3% and the viability, T/C (second compound 1 µM, first compound 0.0316 µM) was 89.6%. For the same compound, the viability, T/C (second compound 1 µM, first compound 0.1 µM) was 101%, the viability, T/C (second compound 1 µM, first compound 0.316 µM) was 104% and the viability, T/C (second compound 1 µM, first compound 1 µM) was 95.1%. For the same compound, the viability, T/C (second compound 1 µM, first compound 3.16 µM) was 76.4%, the viability, T/C (second compound 1 µM, first compound 10 µM) was 70.8% and the viability, T/C (second compound 3.16 µM, first compound 0.0316 µM) was 107%. It also gave a viability, T/C (second compound 3.16 µM, first compound 0.1 µM) of 114%, a viability, T/C (second compound 3.16 µM, first compound 0.316 µM) of 97.4% and a viability, T/C (second compound 3.16 µM, first compound 1 µM) of 102%. The viability, T/C (second compound 3.16 µM, first compound 3.16 µM) was 75.3%, the viability, T/C (second compound 3.16 µM, first compound 10 µM) was 66.6% and the viability, T/C (second compound 10 µM, first compound 0.0316 µM) was 114%. For the same compound, the viability, T/C (second compound 10 µM, first compound 0.1 µM) was 102%, the viability, T/C (second compound 10 µM, first compound 0.316 µM) was 104% and the viability, T/C (second compound 10 µM, first compound 1 µM) was 110%. It also gave a viability, T/C (second compound 10 µM, first compound 3.16 µM) of 74.7% and a viability, T/C (second compound 10 µM, first compound 10 µM) of 70.8%.
